Tested on: db/db mice
Experiment: Investigation with db/db mice (blood glucose and lipids)
Type: in vivo, mouse
Conditions: for Glucose Diff. D o − D 12 / HDL-cholesterol Diff. D o − D 12 / Total cholesterol Diff. D o − D 12 / Triglycerides Diff. D o − D 12: change day 0 to day 12; for Glucose D o / HDL-cholesterol D o / Total cholesterol D o / Triglycerides D o: day 0; for HDL-cholesterol D 12 / Total cholesterol D 12 / Triglycerides D 12 / Glucose D 12: day 12; for Glucose D-4 / HDL-cholesterol D-4 / Total cholesterol D-4 / Triglycerides D-4: day −4
Procedure: The following compounds are investigated and compared to placebo (vehicle control).
The mentioned 3 compounds are tested in db/db mice during a time when diabetes is in a rapid developing stage. […] Each dosage group and the vehicle group comprise 7 mice. The suspensions used are prepared with peroxide free arachis oil as vehicle. Blood samples are collected by retro-orbital bleeding at days −4, 0 and 12. The blood levels of glucose, triglycerides, total cholesterol, and HDL-cholesterol are determined.
For evaluation of efficacy, the difference between the values of glucose, triglycerides, total cholesterol and HDL-cholesterol changing from day 0 to day 12 is determined and expressed in %. […] Overall evaluation consists in determining the efficacy of the compounds by calculating the whole extent of the effect expressed in %. […] This value is considered as a valuable indicator for the efficacy of the investigated compounds administered in a tolerated dose.

[1] = 30 mg/kg/day group versus vehicle group

C=C(c1ccc(C(=O)O)cc1)c1cc2c(cc1C)C(C)(C)CCC2(C)C [Compound 2, 4-[1-(5,6,7,8-tetrahydro-3,5,5,8,8-pentamethyl-2-naphthalenyl)ethenyl]benzoic acid, reference compound]
Glucose Diff. D o − D 12 (0.3 mg/kg/day i.p.): +54.0%
HDL-cholesterol Diff. D o − D 12 (0.3 mg/kg/day i.p.): −11.8%
Total cholesterol Diff. D o − D 12 (0.3 mg/kg/day i.p.): −12.3%
Triglycerides Diff. D o − D 12 (0.3 mg/kg/day i.p.): −4.0%
Glucose D o (0.3 mg/kg/day i.p.): 189 mg/dL
HDL-cholesterol D o (0.3 mg/kg/day i.p.): 2.71 mmol/L
Total cholesterol D o (0.3 mg/kg/day i.p.): 3.99 mmol/L
Triglycerides D o (0.3 mg/kg/day i.p.): 1.98 mmol/L
HDL-cholesterol D 12 (0.3 mg/kg/day i.p.): 2.39 mmol/L
Total cholesterol D 12 (0.3 mg/kg/day i.p.): 3.50 mmol/L
Triglycerides D 12 (0.3 mg/kg/day i.p.): 1.90 mmol/L
Glucose D-4 (0.3 mg/kg/day i.p.): 144 mg/dL
HDL-cholesterol D-4 (0.3 mg/kg/day i.p.): 2.48 mmol/L
Total cholesterol D-4 (0.3 mg/kg/day i.p.): 3.96 mmol/L
Triglycerides D-4 (0.3 mg/kg/day i.p.): 1.65 mmol/L
Glucose levels (in words) (3 mg/kg/day): no significant change
HDL-cholesterol levels (in words) (3 mg/kg/day): not influenced
Triglyceride levels (in words) (3 mg/kg/day): hardly influenced
Glucose Diff. D o − D 12 (3.0 mg/kg/day i.p.): +30.4%
HDL-cholesterol Diff. D o − D 12 (3.0 mg/kg/day i.p.): −8.3%
Total cholesterol Diff. D o − D 12 (3.0 mg/kg/day i.p.): −25.4%
Triglycerides Diff. D o − D 12 (3.0 mg/kg/day i.p.): −24.8%
Glucose D o (3.0 mg/kg/day i.p.): 175 mg/dL
HDL-cholesterol D o (3.0 mg/kg/day i.p.): 2.77 mmol/L
Total cholesterol D o (3.0 mg/kg/day i.p.): 4.65 mmol/L
Triglycerides D o (3.0 mg/kg/day i.p.): 2.01 mmol/L
Glucose D 12 (3.0 mg/kg/day i.p.): 229 mg/dL
HDL-cholesterol D 12 (3.0 mg/kg/day i.p.): 2.54 mmol/L
Total cholesterol D 12 (3.0 mg/kg/day i.p.): 3.47 mmol/L
Triglycerides D 12 (3.0 mg/kg/day i.p.): 1.51 mmol/L
Glucose D-4 (3.0 mg/kg/day i.p.): 169 mg/dL
HDL-cholesterol D-4 (3.0 mg/kg/day i.p.): 2.66 mmol/L
Total cholesterol D-4 (3.0 mg/kg/day i.p.): 4.48 mmol/L
Triglycerides D-4 (3.0 mg/kg/day i.p.): 1.97 mmol/L
Glucose levels (in words) (30 mg/kg/day): only hardly influenced
HDL-cholesterol levels (in words) (30 mg/kg/day): decreased
Total cholesterol levels (in words) (30 mg/kg/day): slightly lower
Triglyceride levels (in words) (30 mg/kg/day): even raises triglyceride levels
Overall extent of the effect on blood levels of Glucose [1]: +5.6%
Overall extent of the effect on blood levels of HDL-cholesterol [1]: −17.8%
Overall extent of the effect on blood levels of Total cholesterol [1]: −13.0%
Overall extent of the effect on blood levels of Triglycerides [1]: +18.3%
Glucose Diff. D o − D 12 (30 mg/kg/day i.p.): +54.8%
HDL-cholesterol Diff. D o − D 12 (30 mg/kg/day i.p.): −21.6%
Total cholesterol Diff. D o − D 12 (30 mg/kg/day i.p.): −21.8%
Triglycerides Diff. D o − D 12 (30 mg/kg/day i.p.): +40.4%
Glucose D o (30 mg/kg/day i.p.): 155 mg/dL
HDL-cholesterol D o (30 mg/kg/day i.p.): 3.10 mmol/L
Total cholesterol D o (30 mg/kg/day i.p.): 4.31 mmol/L
Triglycerides D o (30 mg/kg/day i.p.): 1.61 mmol/L
Glucose D 12 (30 mg/kg/day i.p.): 240 mg/dL
HDL-cholesterol D 12 (30 mg/kg/day i.p.): 2.43 mmol/L
Total cholesterol D 12 (30 mg/kg/day i.p.): 3.37 mmol/L
Triglycerides D 12 (30 mg/kg/day i.p.): 2.26 mmol/L
Glucose D-4 (30 mg/kg/day i.p.): 128 mg/dL
HDL-cholesterol D-4 (30 mg/kg/day i.p.): 2.74 mmol/L
Total cholesterol D-4 (30 mg/kg/day i.p.): 4.24 mmol/L
Triglycerides D-4 (30 mg/kg/day i.p.): 1.75 mmol/L

Source: patent publication US20080255206A1, “Rxr Agonists and Antagonists, Alone or in Combination with Ppar Ligands, in the Treatment of Metabolic and Cardiovascular Diseases” (priority 2005, published 2008)
